Measurements taken from publication PMC7162861, “Synthesis, cytotoxicity, pharmacokinetic profile, binding with DNA and BSA of new imidazo[1,2-a]pyrazine-benzo[d]imidazol-5-yl hybrids” (Scientific Reports, 2020).

Tests used:
[1] = tested on: CT-DNA; assay: CT-DNA binding, fluorescence quenching (Stern-Volmer, Scatchard); parameters: species or system calf
Protocol: The stock solution of compound 31 (10^−3 M) was prepared in DMSO and diluted to required concentration using appropriate buffer solution. Calf thymus (CT)-DNA was dissolved in 10 mM Tris buffer of pH 7.4 having 1 mM EDTA at room temperature. The purity of DNA solution was determined by using the ratio of absorbance at 260 nm and 280 nm wavelength. Extinction coefficient 6600 M^−1 cm^−1 of single nucleotide at 260 nm was used to determine the concentration of the DNA solution. The stock solution of BSA (10^−3 M) was prepared in distilled water and stored at 4 °C temperature.
In the case of BSA experiments, fluorescence emission spectra were performed for BSA (10 µM) with increasing concentration of compound 31 (0–10 µM) in phosphate buffer (pH 7.4) at room temperature upon excitation at 280 nm. The dissociation constant of compound 31 was estimated by titrating the complex of compound 31 (10 µM) and BSA (10 µM) with increasing concentration of ibuprofen (0–15 µM), upon excitation at 280 nm. All emission spectra were recorded in the range of 200 to 800 nm.
Binding parameters KSV and Kq were calculated using the Stern-Volmer equation (Eq. 2):2 F0/F=1+Ksv[Analyte]=1+Kqτo[Analyte]
Fo denotes the emission intensity of derivative 31/BSA free from analyte (CT-DNA/ derivative 31), whereas, F denotes the emission intensity of derivative 31/BSA bound with analyte (CT-DNA/derivative 31). The values of KSV and Kq were determined from the plot of Fo/F vs. [analyte].
The binding parameters Kbin and n were determined using Scatchard equation (Eq. 3):3 logF0−F/F=logKbin+nlog[analyte]
Fo and F denote similar factors as those of the above Stern-Volmer equation. The values of Kbin and n were determined from the plot of log (Fo − F)/F vs. log [analyte].

[2] = NCI cytotoxicity screen, Non-Small Cell Lung Cancer panel; format: cell-based; settings: Homo sapiens; EXVX; five dose 0.01–100 µM; read-out: LC50 (the source's name)
Protocol: Cytotoxicity was performed at National Cancer Institute (NCI), Bethesda, USA as per their protocols.

[3] = tested on: Human Embryonic Kidney cells (HEK293); assay: MTT assay on normal cell line; format: cell-based; settings: 48 h
Protocol: HEK-293 cells (human embryonic kidney cells) were grown in Dulbecco’s modified eagle’s medium (DMEM) supplemented with 100 U/ml penicillin, 10% FBS, […] streptomycin and 50 mM glutamine. Furthermore, cells were harvested using trypsin and seeded in a 96-well cell culture plate for the MTT (3-(4,5-Dimethylthiazol-2-yl)-2,5-diphenyltetrazolium bromide) assay. The test compound was solubilized in cell culture grade DMSO. Once the cells in 96-well plates were 70% confluent, the compound was injected to the cells at five concentrations (0.01, 0.1, 1, 10, 100 µM) at 37 °C for 48 h (made in DMEM supplemented with 1% antibiotic and 10% FBS). After 48 h, cells were washed with PBS and added with 100 μL of fresh media in each well along with 10 μL of MTT reagent (5 mg/mL) for another 4 h. After 4 h, the media was again removed and added 100 μL cell culture grade DMSO to dissolve the formazan crystals formed by the reduction of MTT by live cells. The quantity of formed formazan crystal was determined as alterations in absorbance at 570 nm wavelength using ELISA plate reader (Bio-Tek). All tests were accomplished three times. The cell toxicity (%) was calculated using the following formula: %CellToxicity=100−ODoftreatedwell/ODofuntreatedwell×100

[4] = tested on: EtBr-CT-DNA complex; assay: Competitive binding with ethidium bromide for CT-DNA; parameters: species or system calf
Protocol: Ethidium bromide (EtBr) displacement experiments were performed by incremental addition of compound 31 to complex of EtBr-DNA. The EtBr (3 µM) and CT-DNA (30 µM) were titrated with incremental addition of compound 31 (0–85 µM) in phosphate buffer (pH 7.4). […] The quenching constant (Kq) was calculated using the Stern-Volmer equation (Eq. 2). The apparent binding constant (Kapp) was obtained from known binding constant for ethidium bromide (KEtBr = 1 × 10^7 M^−1) using the following equation (Eq. 4).4 Kapp=KEtBr[EtBr]/[compound]50% where [compound]50% and [EtBr] are the concentrations of the compound at 50% quenching of DNA-bound ethidium bromide emission intensity and ethidium bromide (3 µM), respectively.

## c1cn2cc(-c3ccc4ncn(C5CCCCC5)c4c3)nc(-c3ccc4c(c3)ncn4C3CCCCC3)c2n1 [Compound 31, 8-(1-cyclohexyl-1H-benzo[d]imidazol-5-yl)-6-(1-cyclohexyl-1H-benzo[d]imidazol-6-yl)imidazo[1,2-a]pyrazine]
[1]; CT-DNA, pH 7.4, 298 K
  Ksv (Stern-Volmer constant): 9300 M⁻¹
[1]; CT-DNA, τo = 10^−8 s
  Kq (apparent bimolecular quenching constant): 9.3e+11 M⁻¹ s⁻¹
[1]; CT-DNA, Scatchard
  Kbin: 95800 M⁻¹
  binding constant (Kbin): 95800 M⁻¹
  n (number of binding sites): 1.21
[1]; CT-DNA, Stern-Volmer constant
  KSV: 9300 M⁻¹
[1]; CT-DNA, apparent bimolecular quenching constant
  Kq: 9.3e+11 M⁻¹ s⁻¹
[1]; compound 5 µM, CT-DNA 0–50 µM
  quenching of fluorescence intensity: 75%
[2]
  CC50: > 1 µM
[3]; 10^−4 M
  % survival of HEK293 cells: above 79%
[3]; 10^−5 M
  % survival of HEK293 cells: > 83%
[3]; 10^−6 M
  % survival of HEK293 cells: > 84%
[3]; 10^−7 M
  % survival of HEK293 cells: > 89%
[3]; 10^−8 M
  % survival of HEK293 cells: > 90%
[4]; EtBr displacement, Eq. 4
  apparent binding constant Kapp: 750000 M⁻¹
[4]; EtBr-CT-DNA 3 µM:30 µM, compound 0-80 µM
  quenching constant (Stern-Volmer): 11600 M⁻¹
